Assay [1] has as its system chorda tympani nerve of wild-type B6 mice. Briefly: Chorda tympani whole-nerve responses to lingual taste stimuli, wild-type B6 mice. The class given is in vivo. The note with it: lingual application (FIG. 6B, 7). Here is the method: (§1) Mouse model for sweet property and bitter-masking assay. Recordings of chorda tympani (CT) whole-nerve responses: All protocols involving animals were approved by the Institutional Animal Care and Use Committees at the Monell Center prior to the experiments. The study was performed with mice from two strains: C57BL/6J inbred strain (B6; Jackson Laboratory, Bar Harbor, Me.) bearing the wild-type Tas1r3 allele was used as the control, and the C57BL/6J-Tas1r3^tm1Rjm “gene-knockout” strain (T1R3-KO) lacking the entire T1R3 coding region and devoid of T1R3 protein ([…]., et al., Science, 301: 850-853 (2003)). Afferent signals from taste cells are relayed to the brain via three major gustatory nerves: the chorda tympani, glossopharyngeal, and greater superficial petrosal. […] Neural responses resulting from chemical stimulations of the tongue were fed into an amplifier (Grass Instruments, West Warwick, R.I.) and monitored on an oscilloscope and an audio monitor. Whole-nerve responses were integrated with a time constant of 1.0 s and recorded using a computer for later analysis using a PowerLab system (PowerLab/sp4; AD Instruments, Colorado Springs, Colo.). […] To analyze nerve responses to each stimulus, the magnitudes of integrated responses at 5, 10, 15, 20, and 25 s after stimulus onset were measured and averaged. […]

Assay [2] relates to T1R3. The assay can be described thus: Chorda tympani whole-nerve responses to lingual taste stimuli, T1R3-KO mice. In kind it is in vivo. The note with it: lingual application (FIG. 6A, 7). Here is the method:
as §1

Assay [3] concerns cultured human fungiform taste papillae cells (HBO cells). The assay can be described thus: Calcium imaging of cultured human fungiform taste papillae (HBO) cells: response frequency, estimation of sweet potency. In kind it is cell-based. An excerpt: In vitro cell-based assay of sweet property. Establishment and maintenance of cultures of human fungiform taste papillae cells (HBO cells): We previously established the current proprietary protocol (Ozdener, H., et al., Chem. Senses, 31(3): 279-90 (2006); Ozdener, M. H., et al., Chem. Senses, 36(7): 601-12 (2011); Ozdener, H., et al., Isolation and culture of human fungiform taste papillae cells, J. Vis. Exp., 2012 May 17;(63):e3730) which allowed us to culture human fungiform taste papillae cells retaining their physiological and molecular characteristics for more than a year. […] The human fungiform taste papillae cells were cultured according to protocols that we have published (Ozdener et al. 2006, Ozdener et al. 2011). Human fungiform taste papillae were removed and immediately placed into an isolation solution followed by enzymatic digestion. Digested fungiform papillae were then gently minced with a surgical razor and seeded on collagen type-1 coated coverslips and incubated at 36° C. in a humidified environment containing 5% CO2. The fungiform taste papillae cells were cultured in Iscove's Modified Dulbecco's medium containing 10% fetal bovine serum, 1:5 ratio of MCDB (Molecular, Cellular, and Developmental Biology) 153 medium, and a triple cocktail of antibiotics (100 U/mL/100 μg/mL, penicillin/streptomycin, and 0.5 μg/mL fungizone). Culture medium was replaced every 5-7 days by one-third of fresh culture medium. Human fungiform taste papillae cells have been maintained in culture for a period of more than 1 year without loss of viability and with retention of the molecular and biochemical properties of acutely isolated taste cells (Ozdener et al., 2011). Calcium imaging: Cultured taste cells grown for 3-4 days glass coverslips which were loaded for 30-60 min with the calcium sensitive dye fura-2 by incubating the cells in Ringer solution (145 mM NaCl, 5 mM KCl, 1 mM MgCl2, 1 mM CaCl2, 1 mM Na-pyruvate, 20 mM Hepes-Na and Cellobiose 15 mM, pH 7.2 with osmolarity adjusted to 300-310 by 5M NaCl) supplemented with […] (Molecular Probes Inc., Eugene, Oreg.) and 10 mg/ml Pluronic® F127 (Molecular Probes Inc.). Coverslips were then placed in a recording chamber and continuously bathed with Ringer solution superfusion. Stimuli were dissolved in Ringer and then pH and osmolarity readjusted if needed. Cells were exposed to sweet ([…]), bitter mixture (PTC (phenylthiocarbamide)) 2mM+Salicin 5 mM+Denatonium 2 mM), guaifenesin (GF, 3 mM) and acetaminophen (APAP, 3 mM), and various sophorolipids stimuli: sophorose, sophorolipid palmitic acid, sophorolipid stearic acid, sophorolipid oleic acid. […]

For `OC[C@H]1O[C@@](CO)(O[C@H]2O[C@H](CO)[C@@H](O)[C@H](O)[C@H]2O)[C@@H](O)[C@@H]1O` [sucrose], the results for the chorda tympani responses entry in assay [1] and in assay [2] were “present” and “nearly absent”, respectively.
Take `OC[C@H]1O[C@H](O[C@]2(CCl)O[C@H](CCl)[C@@H](O)[C@@H]2O)[C@H](O)[C@@H](O)[C@H]1Cl` [Sucralose, sucralose]: the “%-responsive cells” value in assay [3] (cultured human taste cells, concentration 5 mM) was 16.67%. The “Concentration adjusted response frequency” value in assay [3] (tested at 5 mM, sucralose 5 mM is the standard) was 16.67.

These data come from patent publication US10799590B2, “Compositions containing a bitter tastant and at least one sophorolipid, and methods of reducing bitter taste attributed to a bitter tastant in an edible composition” (The United States of America, as Represented by the …, priority 2015, dated 2020).
